# Measurements as given in ChEMBL document CHEMBL3046714, “Synthesis and Precocious Metamorphosis-Inducing Activity of 3-(1-Alkenyl) pyridines” (J Pestic Sci, 2000).
# Legend:
# Bombyx mori [1] = experiment: Precocious metamorphosis-inducing activity in Bombyx mori Shunrei x Shougetsu fourth-instar larvae assessed as change in body weight compound applied topically measured every 12 hr during fourth-instar period; type: functional
# Bombyx mori [2] = experiment: Precocious metamorphosis-inducing activity in Bombyx mori Shunrei x Shougetsu fourth-instar larvae assessed as change in body weight at >160 ug applied topically measured every 12 hr during fourth-instar period; type: functional
# Bombyx mori [3] = experiment: Precocious metamorphosis-inducing activity in Bombyx mori Shunrei x Shougetsu fourth-instar larvae assessed as change in body weight at >80 ug applied topically measured every 12 hr during fourth-instar period; type: functional
# [4] = Toxicity in Bombyx mori Shunrei x Shougetsu fourth-instar larvae assessed as mortality at 160 ug applied topically; type: organism-based; conditions: in vivo, topical or ocular
SMILES,ED50 (Bombyx mori [1]) [µg],Activity (Bombyx mori [2]) [%],Activity (Bombyx mori [3]) [%],mortality [4] [%]
CC(=Cc1ccccc1)c1cccnc1,42,–,–,–
CC=C(c1ccccc1)c1cccnc1,26,–,–,–
CC(C)C=C(c1ccccc1)c1cccnc1,27,–,–,–
C(=C\c1cccnc1)/c1ccccc1,>160,9,–,–
CC=C(C)c1cccnc1,>160,20,–,–
CCCC=C(c1ccccc1)c1cccnc1,50,–,–,–
CCC(c1ccccc1)c1cccnc1 (racemic),42,–,–,–
CCOC(=O)/C=C(/C)c1cccnc1,>160,0,–,–
CC(C)CC=C(c1ccccc1)c1cccnc1,34,–,–,–
CCOC(=O)/C=C(\C)c1cccnc1,>160,5,–,–
CC=Cc1cccnc1,>160,0,–,–
CCCCC=C(c1ccccc1)c1cccnc1,102,–,–,–
CCC=C(c1ccccc1)c1cccnc1,29,–,–,–
C(=C(c1ccccc1)c1cccnc1)c1ccccc1,144,–,–,–
C=C(c1ccccc1)c1cccnc1,56,–,–,–
CCOC(=O)/C=C/c1cccnc1,>160,0,–,–
C(=C/c1cccnc1)/c1ccccc1,>80,–,7,100
CCCCCC=C(c1ccccc1)c1cccnc1,>160,35,–,–
CCOC(=O)C=C(c1ccccc1)c1cccnc1,89,–,–,–
